# According to patent US20150110716A1, “METHODS OF USING SPECT/CT ANALYSIS FOR STAGING CANCER” (Molecular Insight Pharmaceuticals, Inc., priority 2013, published 2015):
# “And” between values parts separate entries of the source, which are not always exact repeats. Equal values may be shown once.
# What was measured:
# Format in all cases: in vivo, human
# [1] = tested on: high-grade prostate cancer in lobes and segments of the prostate gland; experiment: Phase 1 study: SPECT/CT T/B ratio (threshold 5.9) vs step-section histopathology
# Description: Protocol for Determining the Optimal Threshold Value for Discriminating Low Grade Prostate Cancer from a Higher Grade Prostate Cancer. Methods: SPECT/CT images of the pelvis including the prostate gland were obtained with a hybrid gamma camera in a 128×128 pixel matrix format with a 360 degree circular or elliptical orbit acquired into 120-128 frames. Raw images were reconstructed into 3D space with an iterative ordered subset estimation maximization algorithm corrected for attenuation and resolution recovery. […] Circular regions of interest with a diameter of approximately 20 pixels were placed on the obturator muscle adjacent to and to the left side (patient left) of the prostate gland. Counts within that region were recorded as background. Axial slices through the lower third, middle and upper third of the gland were selected to sample the apex, mid-gland and base of the prostate respectively. Radioactivity counts form the right and left side of the gland for each of the three slices were obtained for the same sized circular region of interest as background. The target to background ratio (T/B) was obtained by dividing the counts from prostate tissue by the background count. When large intense lesions originating in one side of the gland crossed the midline due to morphological changes to the anatomy, the area was scored according to the site of origin.
# The suitability of a compound represented by Formula (1) to detect and discriminate between tumor tissue and normal tissue was tested in a Phase 1 study by comparing the SPECT/CT images obtained using a compound represented by Formula (1) with step-section histopathology in 8 patients (pts) undergoing radical prostatectomy. Briefly, 8 patients were administered 20mCi of the Formula (1) compound and SPECT/CT images of the pelvis were acquired 2 hours after injection. The T/B ratio was calculated for six segments of the prostate gland based on the images. Imaging results in segments and right and left lobes of the prostate were compared with Primary Gleason Grades (PGG) and total Gleason Scores (GS) recorded by a blinded pathologist. Sensitivity, specificity, accuracy for a T/B threshold of 5.9 were calculated by a receiver operator curve as explained above.
# [2] = tested on: metastatic prostate cancer in pelvic lymph nodes; experiment: Phase 2 study: SPECT/CT detection of pelvic lymph node involvement vs histopathology
# Description: A phase-2 study to image men with high-risk prostate cancer scheduled for radical prostatectomy (RP) and Extended Pelvic Lymph Node Dissection (EPLND) was performed using a compound according to Formula (1), as an illustrative radioimaging agent. The primary objective of the study was to assess the safety and the ability of the Formula (1) compound to detect prostate cancer within the prostate gland. Secondary objectives include (i) assess the ability of the Formula (1) compound to detect the extent and location of prostate cancer within the prostate gland, (2) assess the ability of the Formula (1) compound to detect metastatic PCa within pelvic lymph nodes and to further detect the specific location of metastatic PCa within anatomic pelvic lymph node regions, (3) compare the performance of the Formula (1) compound as a prostate cancer imaging agent to MRI and compare the ability of the Formula (1) compound to detect the specific location of metastatic PCa within pelvic lymph nodes to the ability of MRI for detecting the specific location of metastatic PCa within pelvic lymph nodes.
# A Phase-2 multi-center, multi-reader, open-label trial, to assess the performance characteristics of the Formula (1) compound as an imaging agent was measured by true-positive fraction (TPF equivalent to sensitivity) and false-positive fraction (FPF, equivalent to 1-specificity). The “truth standard” for determining true-positive cases and false-positive cases were histopathology results obtained subsequent to RP and EPLND. […]
# Newly-diagnosed prostate cancer patients at high-risk for metastatic disease who were scheduled for RP with EPLND were enrolled in the study. […] Images of the patients were evaluated for visible uptake of the Formula (1) compound within the prostate gland and by regional assessment of nodal disease. […]
# Patients (pts) with biopsy confirmed adenocarcinoma of the prostate scheduled for RP with extended pelvic lymph node dissection (EPLND) at high risk for disease outside of the prostate gland were eligible. […] SPECT/CT images were evaluated centrally by 3 readers blinded to clinical information and compared to on-site pathology assessments using a common scoring template, for instance, a Lesion Visualization Grading Score. […]
# Three nuclear medicine experts and an MRI expert, blinded to clinical information, assessed ^99mTc-trofolastat uptake and morphologic features respectively in the prostate gland and lymph nodes. The findings were recorded using common anatomic template consisting of six prostate segments and pelvic lymph node regions. […]
# [3] = tested on: lesions in lymph nodes and bone of men with prostate cancer; experiment: Phase 1 cross-over study: whole-body and SPECT/CT lesion imaging; details: for detection of metastatic lesions compared with bone scan: patient with prior prostatectomy and rising PSA, FIG. 2C
# Description: Pharmacokinetics, Biodistribution, Dosimetry, Metabolism & Excretion of compound represented by Formula (1) and Formula (2). Methods: Fourteen subjects (7 metastatic prostate cancer patients and 7 healthy, normal males) were enrolled in a phase 1, single-blind, randomized, cross-over study in which subjects were randomly administered a single dose (740 MBq; 20 mCi) of a compound represented by Formula (1) and a similar chemical analog, a compound represented by Formula (2), 14 days apart. […] (FIGS. 1 and 2A)
# [4] = tested on: lesions in lymph nodes and bone; experiment: Phase 2 study: whole-body planar and SPECT/CT imaging compared with bone scan; details: post-injection, men with prostate cancer
# Description: The methodology of Example 4 was used. Whole-body planar scintigraphic images using ^99mTc-MIP-1404 were evaluated by 3 readers blinded to clinical information to determine if disease was present beyond the pelvic region. The ^99mTc-MIP-1404 whole-body images were compared to the bone scan images.
# [5] = Lobe Gleason Score ≧7, T/B threshold 5.9
# [6] = Segment Dominant Grade ≧4, T/B threshold 5.9
# [7] = Segment Gleason Score ≧7, T/B threshold 5.9
substance,measurement,setting,value
"(OC-6-33)-tricarbonyl[N^2-{[(1S)-1,3-dicarboxypropyl]amino]carbamoyl}-L-γ-glutamyl-N^6,N^6-bis[(1-{2-[bis(carboxymethyl)amino]-2-oxoethyl]-1H-imidazol-2-yl-κN^3]methyl]-L-lysine-κN^6](^99mTc)(+)chloride [Formula (1)]",identification of presence of primary prostate cancer,"[1]; 8 patients, 20 mCi, SPECT/CT 2 hours after injection",correctly identified the presence of primary prostate cancer in all patients
same,AUC ± SE (ROC),[1]; Lobe Gleason Score ≧7,0.969 ± 0.04
same,Accuracy,[1]; [5],93.8% and 93.8 (15/18) %
same,Sensitivity,[1]; [5],92.3%
same,Specificity,[1]; [5],100%
same,AUC ± SE (ROC),[1]; Segment Dominant Grade ≧4,0.942 ± 0.04
same,Accuracy,[1]; [6],89.6% and 89.6 (43/48) %
same,Sensitivity,[1]; [6],90.0%
same,Specificity,[1]; [6],89.3%
same,AUC ± SE (ROC),[1]; Segment Gleason Score ≧7,0.87 ± 0.05
same,Accuracy,[1]; [7],81.3% and 81.3 (39/48) %
same,Sensitivity,[1]; [7],71.4%
same,Specificity,[1]; [7],95%
same,scan-detected lymph node involvement confirmed by histopathology,[2]; 8/16,50%
same,patients with lymph node involvement detected by scan,[2]; 16/53 patients,30%
same,patients in whom lymph node involvement was accurately characterized,[2]; 41/53 patients,77%
same,size of positive lymph nodes detected,[2]; patients positive by scan with matching positive histopathology,2 mm
same,detection of metastatic lesions compared with bone scan,[3],identified multiple foci of metastatic cancer not seen in the bone scan
same,detection of metastatic lesions compared with bone scan,[3]; listed as Formula 1,detected more metastatic lesions earlier
same,earliest time lesions in lymph nodes and bone visualized by whole-body imaging,"[3]; post-injection, men with prostate cancer",1 h
same,earliest time lesions in lymph nodes and bone visualized by whole-body imaging,[4],1 h
